Columns and labels:
LNCaP cells [1] = assay: PSA assay on tissue culture supernatants of LNCaP cells cultured with iron chelator; assay type: cell-based; conditions: for Molecules PSA Per Viable Cell / Total PSA / Molecules PSA Per Cell: 72 Hrs; for Total PSA: from 3.0 ml supernatant per well; for Molecules PSA Per Cell: total cells recovered
Procedure: (§1) Comment: Table 2 is data from one of three similar experiments in which cells were cultured for 72 hours following the methods described in the proposal (i.e., cells in 6-well plates for PSA studies and cells in 96-well plates for thymidine incorporation, both at the same cell concentration). […] For viable cells, the per cell production of PSA rose 33.6% (column 8: PSA value of 1.5×10E7 molecules per cell divided by control value of 1.13×10E7). […]

[2] = Cell counts and viability of LNCaP cells after culture with iron chelator; assay type: cell-based; conditions: human, LNCaP cells
Procedure: as §1

LNCaP cells [3] = assay: as above; assay type: cell-based; conditions: 72 Hrs
Procedure: as §1

LNCaP cells [4] = assay: Thymidine (3H) incorporation, LNCaP cells in 96-well plates; assay type: cell-based; conditions: Homo sapiens, read-out: % Inhibition 3H
Procedure: Comment: Table 2 is data from one of three similar experiments in which cells were cultured for 72 hours following the methods described in the proposal (i.e., cells in 6-well plates for PSA studies and cells in 96-well plates for thymidine incorporation, both at the same cell concentration). […] For viable cells, the per cell production of PSA rose 33.6% (column 8: PSA value of 1.5×10E7 molecules per cell divided by control value of 1.13×10E7).

transferrin receptor = transferrin receptor (Homo sapiens, UniProt P02786); conditions: Forsbeck et al.; cited from earlier work
Chain of transferrin receptor (P02786 whole entry): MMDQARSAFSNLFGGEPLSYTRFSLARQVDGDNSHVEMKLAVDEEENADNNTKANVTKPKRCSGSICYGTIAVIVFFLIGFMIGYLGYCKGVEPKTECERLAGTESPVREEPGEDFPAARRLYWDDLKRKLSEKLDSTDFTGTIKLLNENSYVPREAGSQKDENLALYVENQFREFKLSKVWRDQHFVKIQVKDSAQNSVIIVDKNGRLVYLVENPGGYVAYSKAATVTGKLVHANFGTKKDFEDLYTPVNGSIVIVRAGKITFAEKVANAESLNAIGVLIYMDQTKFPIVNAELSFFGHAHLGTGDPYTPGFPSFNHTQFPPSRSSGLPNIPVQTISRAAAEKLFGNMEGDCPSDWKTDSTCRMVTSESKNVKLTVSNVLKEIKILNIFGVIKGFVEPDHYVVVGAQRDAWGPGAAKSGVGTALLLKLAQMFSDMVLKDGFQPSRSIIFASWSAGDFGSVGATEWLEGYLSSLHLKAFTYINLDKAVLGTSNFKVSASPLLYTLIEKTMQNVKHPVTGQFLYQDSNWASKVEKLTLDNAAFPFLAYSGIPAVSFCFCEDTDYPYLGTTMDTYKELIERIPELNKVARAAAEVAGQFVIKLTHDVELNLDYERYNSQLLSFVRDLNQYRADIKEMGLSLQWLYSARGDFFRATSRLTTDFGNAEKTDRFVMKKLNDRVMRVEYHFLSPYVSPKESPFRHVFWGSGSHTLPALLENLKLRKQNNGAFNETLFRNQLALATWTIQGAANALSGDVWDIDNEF

Structure (SMILES): CC(=O)N(O)CCCCCNC(=O)CCC(=O)N(O)CCCCCNC(=O)CCC(=O)N(O)CCCCCN [Desferal, Deferoxamine]
- rise in production of PSA per viable cell versus control (LNCaP cells [1]; DFO 2.5 micrograms/ml, 72 hours): 33.6%
- Molecules PSA Per Viable Cell (LNCaP cells [1]; Desferal 0.1 ug/ml): 1.28 × 10^7
- Total PSA (LNCaP cells [1]; Desferal 0.1 ug/ml): 710 ng
- Molecules PSA Per Cell (LNCaP cells [1]; Desferal 0.1 ug/ml): 1.20 × 10^7
- Molecules PSA Per Viable Cell (LNCaP cells [1]; Desferal 0.25 ug/ml): 1.30 × 10^7
- Total PSA (LNCaP cells [1]; Desferal 0.25 ug/ml): 710 ng
- Molecules PSA Per Cell (LNCaP cells [1]; Desferal 0.25 ug/ml): 1.22 × 10^7
- Molecules PSA Per Viable Cell (LNCaP cells [1]; Desferal 0.50 ug/ml): 1.14 × 10^7
- Total PSA (LNCaP cells [1]; Desferal 0.50 ug/ml): 650 ng
- Molecules PSA Per Cell (LNCaP cells [1]; Desferal 0.50 ug/ml): 1.06 × 10^7
- Molecules PSA Per Viable Cell (LNCaP cells [1]; Desferal 1.0 ug/ml): 1.12 × 10^7
- Total PSA (LNCaP cells [1]; Desferal 1.0 ug/ml): 644 ng
- Molecules PSA Per Cell (LNCaP cells [1]; Desferal 1.0 ug/ml): 1.04 × 10^7
- Molecules PSA Per Viable Cell (LNCaP cells [1]; Desferal 2.0 ug/ml): 1.41 × 10^7
- Total PSA (LNCaP cells [1]; Desferal 2.0 ug/ml): 642 ng
- Molecules PSA Per Cell (LNCaP cells [1]; Desferal 2.0 ug/ml): 1.32 × 10^7
- Molecules PSA Per Viable Cell (LNCaP cells [1]; Desferal 2.5 ug/ml): 1.51 × 10^7
- Total PSA (LNCaP cells [1]; Desferal 2.5 ug/ml): 627 ng
- Molecules PSA Per Cell (LNCaP cells [1]; Desferal 2.5 ug/ml): 1.42 × 10^7
- Molecules PSA Per Viable Cell (LNCaP cells [1]; Desferal 3.0 ug/ml): 1.59 × 10^7
- Total PSA (LNCaP cells [1]; Desferal 3.0 ug/ml): 587 ng
- Molecules PSA Per Cell (LNCaP cells [1]; Desferal 3.0 ug/ml): 1.45 × 10^7
- Molecules PSA Per Viable Cell (LNCaP cells [1]; Desferal 4.0 ug/ml): 1.80 × 10^7
- Total PSA (LNCaP cells [1]; Desferal 4.0 ug/ml): 611 ng
- Molecules PSA Per Cell (LNCaP cells [1]; Desferal 4.0 ug/ml): 1.54 × 10^7
- viability at 72 h, 0.1 ug/ml ([2]; Desferal 0.1 ug/ml): 93%
- viability at 72 h, 0.25 ug/ml ([2]; Desferal 0.25 ug/ml): 93.8%
- viability at 72 h, 0.5 ug/ml ([2]; Desferal 0.50 ug/ml): 93.4%
- viability at 72 h, 1 ug/ml ([2]; Desferal 1.0 ug/ml): 92.2%
- viability at 72 h, 2 ug/ml ([2]; Desferal 2.0 ug/ml): 98.3%
- viability at 72 h, 2.5 ug/ml ([2]; Desferal 2.5 ug/ml): 94.3%
- viability at 72 h, 3 ug/ml ([2]; Desferal 3.0 ug/ml): 90.9%
- viability at 72 h, 4 ug/ml ([2]; Desferal 4.0 ug/ml): 85.4%
- Total Cells (LNCaP cells [3]; Desferal 0.1 ug/ml): 1.09 × 10^6
- Total Viable Cells (LNCaP cells [3]; Desferal 0.1 ug/ml): 1.01 × 10^6
- Total Cells (LNCaP cells [3]; Desferal 0.25 ug/ml): 1.07 × 10^6
- Total Viable Cells (LNCaP cells [3]; Desferal 0.25 ug/ml): 1.00 × 10^6
- Total Cells (LNCaP cells [3]; Desferal 0.50 ug/ml): 1.13 × 10^6
- Total Viable Cells (LNCaP cells [3]; Desferal 0.50 ug/ml): 1.06 × 10^6
- Total Cells (LNCaP cells [3]; Desferal 1.0 ug/ml): 1.14 × 10^6
- Total Viable Cells (LNCaP cells [3]; Desferal 1.0 ug/ml): 1.05 × 10^6
- Total Cells (LNCaP cells [3]; Desferal 2.0 ug/ml): .900 × 10^6
- Total Viable Cells (LNCaP cells [3]; Desferal 2.0 ug/ml): 840 × 10^6
- Total Cells (LNCaP cells [3]; Desferal 2.5 ug/ml): .810 × 10^6
- Total Viable Cells (LNCaP cells [3]; Desferal 2.5 ug/ml): .760 × 10^6
- Total Cells (LNCaP cells [3]; Desferal 3.0 ug/ml): .744 × 10^6
- Total Viable Cells (LNCaP cells [3]; Desferal 3.0 ug/ml): .680 × 10^6
- Total Cells (LNCaP cells [3]; Desferal 4.0 ug/ml): .730 × 10^6
- Total Viable Cells (LNCaP cells [3]; Desferal 4.0 ug/ml): .620 × 10^6
- inhibition at 0.1 µg/mL (LNCaP cells [4]): 1.8%
- inhibition at 0.25 µg/mL (LNCaP cells [4]): 6.8%
- inhibition at 0.5 µg/mL (LNCaP cells [4]): 7.4%
- inhibition at 1 µg/mL (LNCaP cells [4]): 10.6%
- inhibition at 2 µg/mL (LNCaP cells [4]): 21.1%
- inhibition at 2.5 µg/mL (LNCaP cells [4]): 26.8%
- inhibition at 3 µg/mL (LNCaP cells [4]): 40.3%
- inhibition at 4 µg/mL (LNCaP cells [4]): 52.7%

Structure (SMILES): Cc1ccc(C(=O)Nc2ccc(S(=O)(=O)O)c3cc(S(=O)(=O)O)cc(S(=O)(=O)O)c23)cc1NC(=O)c1cccc(NC(=O)Nc2cccc(C(=O)Nc3cc(C(=O)Nc4ccc(S(=O)(=O)O)c5cc(S(=O)(=O)O)cc(S(=O)(=O)O)c45)ccc3C)c2)c1 [suramin]
- binding of transferrin to its receptor (transferrin receptor): partially inhibit

Reference: patent publication US6352834B1, “Prostate cancer assays and related methods” (University of Iowa Research Foundation, priority 1998, dated 2002)
